The source of these data is US8785594B2, “Glycoproteins and glycosylated cells and a method for the preparation of the same” (Glycom A/S, priority 2007, dated 2014).

Common to all, as to type: cell-based
Experiment [1] relates to B16.BL6 melanoma cells. Put plainly: Staining of cell smears with FITC-labelled GS1B4 (Example 11). As to the method: Five hundred mg of alpha-Gal trisaccharide-carbamate (9) was dissolved in PBS (without Mg^2+ and Ca^2+) (Gibco Invitrogen, Taastrup, Denmark) and passed through a sterile filter (Sartorius Minisart®, 0.20 my) (Sartorius, Goettingen, Germany). Eight different concentrations of conjugate were prepared. Two mL of each conjugate dilution was added to a flask with 2 mL of PBS (without Mg^2+ and Ca^2+) and 600 μl of cell suspension containing 10^6 B16.BL6 cells. The final volume of the flasks was 4.6 mL. The flasks were numbered 1 to 10. Flasks 1 and 10 contained no conjugate and served as controls. The cells were incubated with the conjugate for 3 hours and 25 minutes at 37° C. and 5% CO2.
Smears of cells from conjugation reaction 1 (non-conjugated control cells), 2, 4, 6 and 8 were incubated for 1 hour at room temperature with FITC-labelled GS1B4 diluted 1:200 in TBS. After a rinse in TBS, one drop of Fluorescent Mounting Medium (DAKO) was placed on each of the cell specimens and glass coverslips were placed on top. Binding of FITC-labelled GS1B4 to Galα1,3Gal on conjugated cells was assessed by fluorescence microscopy.

Experiment [2] concerns B16.BL6 melanoma cells. Nature of the experiment: Scintillation, epitopes per cell (Example 15). As to the method: Radioactive labelled and regular alpha-Gal trisaccharide-carbamate (9) probe (labeled on the cyclic carbamate carbon) was dissolved in HBSS containing D-glucose (without Mg^2+ and Ca^2+) (Gibco Invitrogen, Taastrup, Denmark) and passed through sterile filters (0.2 μm Supor® Acrodisc® 13, Gelman Sciences, Ann Arbor, Mich.). Eight different concentrations of radioactive labelled alpha-Gal trisaccharide-carbamate (9) (1 μg, 10 μg, 100 μg, 1 mg, 5 mg, 10 mg, 15 mg and 20 mg) and […] of regular “Glycom conjugate” (10 μg, 100 μg, 1 mg, 5 mg, 10 mg, 15 mg and 20 mg) were used. Twelve flasks (300 cm^2) (TPP, Trasadingen Switzerland) were prepared, each containing 10×10^6 B16.BL6 cells, for conjugation with the radioactive labelled trisaccharide probe, and 8 flasks (150 cm^2) (TPP, Trasadingen Switzerland) were prepared, each containing 5×10^6 B16.BL6 cells, for conjugation with the non-radioactive conjugate. The Glycom conjugate was added and the total volume was adjusted with HBSS containing D-glucose (without Mg^2+ and Ca^2+) so that each large flask (300 cm^2) contained a final volume of 20 mL and each medium flask (150 cm^2) contained a final volume of 10 mL. Cells were incubated with the “Glycom conjugate” for 1.5 hours at 37° C. After conjugation, the supernatant from each flask was transferred to separate 50 mL tubes (TPP, Trasadingen Switzerland). The cells were harvested with Cell Dissociation Solution (10 mL per large flask and 5 mL per medium flask) (Sigma-aldrich, Saint Louis, Mo.) and transferred to the 50 mL tubes containing the supernatant. The cells were centrifuged for 5 minutes at 300 G at 20° C. and resuspended in 5 mL of PBS (without Mg^2+ and Ca^2+). This was repeated 3 times before cell concentration and viability was determined by microscopic evaluation of trypan blue stained cell samples.
Cells incubated with radioactive labelled trisaccharide probe were centrifuged for 5 minutes at 1000 G at 20° C. The supernatant was discharged and the remaining pellets were dried. Subsequently, the pellets were dissolved in 450 μl Mili-Q H2O and 1.5 mL of scintillation fluid was added. Standards for the scintillation were made by adding 500 pCi, 0.5 pCi and 0 pCi to the 3 samples of control cells. The samples were stored at room temperature for 3 days, before the cell suspensions were transferred to scintillation vials and counted.

Experiment [3] deals with B16.BL6 melanoma cells. Nature of the experiment: Scintillation, estimation of epitopes per cell (Example 14). The protocol:
Radioactive labelled and regular trisaccharide probe was dissolved in HBSS containing D-glucose (without Mg^2+ and Ca^2+) (Gibco Invitrogen, Taastrup, Denmark) and passed through sterile filters (0.2 μm Supor® Acrodisc® 13, Gelman Sciences, Ann Arbor, Mich.). Four different concentrations of each “Glycom conjugate” (25 mg, 5 mg, 1 mg and 0.1 mg) were made. Twelve flasks (150 cm^2) (TPP, Trasadingen Switzerland) were prepared each containing a total of 10×10^6 B16.BL6 cells. The trisaccharide probe was added and the total volume was adjusted to 20 mL with HBSS containing D-glucose (without Mg^2+ and Ca^2+). The cells were incubated with the “Glycom conjugate” for 1.5 hours at 37° C. After conjugation, the supernatant from each flask was transferred to separate 50 mL tubes (TPP, Trasadingen Switzerland). The cells were harvested with Cell Dissociation Solution C5914 (5 mL per flask) (Sigma-Aldrich, Saint Louis, Mo. and transferred to the 50 mL tubes containing the supernatant. The cells were centrifuged for 3 minutes at 300 G at 20° C. and resuspended in 5 mL of PBS (without Mg^2+ and Ca^2+). This was repeated 3 times before cell concentration and viability was determined by microscopical evaluation of trypan blue stained cell samples.
Cells conjugated with radioactive labelled trisaccharide probe were centrifuged for 5 minutes at 1000 G at 20° C. The supernatants were discharged and the remaining pellets were dried. Subsequently, the pellets were dissolved in 400 μl Mili-Q H2O and 1.5 mL of scintillation fluid was added. Standards for the scintillation were made by adding 500 pCi, 0.5 pCi and 0 pCi to the 3 samples of control cells. The samples were stored at room temperature for 3 days, before the cell suspensions were transferred to scintillation vials and counted.

Regarding `O=C1N[C@@H]2O[C@H](CO)[C@@H](O[C@@H]3O[C@H](CO)[C@H](O)[C@H](O[C@H]4O[C@H](CO)[C@H](O)[C@H](O)[C@H]4O)[C@H]3O)[C@H](O)[C@H]2O1` [Compound 9, alpha-Gal trisaccharide-carbamate], the “Staining of cell membranes with FITC-labelled GS1B4” value in the experiment on B16.BL6 melanoma cells [1] (conjugation reaction 2 (200 mg)) is given as “heavily stained”. Besides, the “Galα1,3Gal epitopes detected by binding of FITC-labelled GS1B4 on cell smears” value in the experiment on B16.BL6 melanoma cells [1] (conjugation reactions 2, 4, 6 and 8 (200, 50, 10, 2 mg)) was “found on cells from all conjugation reactions tested”.
`O=[13C]1N[C@@H]2O[C@H](CO)[C@@H](O[C@@H]3O[C@H](CO)[C@H](O)[C@H](O[C@H]4O[C@H](CO)[C@H](O)[C@H](O)[C@H]4O)[C@H]3O)[C@H](O)[C@H]2O1` [radioactive labelled conjugate]: the Epitopes per cell is on record as 1.0 × 10^6 in the experiment on B16.BL6 melanoma cells [2] (1 μg conjugate added); 0.6 × 10^6 with B16.BL6 melanoma cells [2] (10 μg conjugate added); 6.8 × 10^6 in the experiment with B16.BL6 melanoma cells [2] (100 μg conjugate added); 33.9 × 10^6 in the experiment with B16.BL6 melanoma cells [2] (1 mg conjugate added); 175.3 × 10^6 with B16.BL6 melanoma cells [2] (5 mg conjugate added); 501.2 × 10^6 in the experiment with B16.BL6 melanoma cells [2] (15 mg conjugate added). For the same molecule, the Epitopes per cell with B16.BL6 melanoma cells [2] (20 mg conjugate added) is given as 515.2 × 10^6; in the experiment on B16.BL6 melanoma cells [3] (0.1 mg conjugate added) it was 3.6 × 10^6; in the experiment with B16.BL6 melanoma cells [3] (1 mg conjugate added), 28.3 × 10^6; in the experiment with B16.BL6 melanoma cells [3] (5 mg conjugate added, cells from supernatant only), 152.4 × 10^6; in the experiment on B16.BL6 melanoma cells [3] (25 mg conjugate added, attached cells only) it was 364.2 × 10^6. The “Relation of scintillation counts to dose of conjugate” value with B16.BL6 melanoma cells [2] (1 μg-20 mg) and in the experiment on B16.BL6 melanoma cells [3] (0.1-25 mg) was “positive correlation” throughout.
